According to patent EP4775577A1, “RAS INHIBITOR” (Tyligand Bioscience (Shanghai) Limited, priority 2023, dated 2025):

Assays:
[1] = tested on: human lung cancer cells NCI-H441 with KRAS-G12V mutation; assay: Antitumor effect in NCI-H441 subcutaneous xenograft model; assay type: in vivo, NU/NU mice; settings: 20 mpk, PO; for Tumor volume (mm^3) (day 16): BID×17; for TGI%: BID×17, day 16
Method: NCI-H441 cells were purchased from ATCC (catalog number: HTB-174). Male NU/NU mice were purchased from Jiangsu Jicui Yaokang Biotechnology Co., Ltd.
NCI-H441 cells were cultured in RPMI-1640 medium containing 10% FBS. Cells in the logarithmic growth phase were collected and resuspended in PBS to an appropriate concentration for subcutaneous tumor inoculation in mice. Experimental mice were subcutaneously inoculated in the right posterior back at a seeding density of 1×10^6 cells/mouse+Matrigel, with a seeding volume of 0.1 mL. When the average tumor volume reached ~150 mm^3, mice were randomly assigned to groups based on tumor size and body weight for drug administration. Drug administration began immediately after grouping, and the day of administration was considered day 0. The drug was administered to the mice twice daily via gavage at doses of 10 mpk, 20 mpk, 30 mpk, or a solvent control (0.5% Tween 80+99.5% of 0.5% MC (400 cp) or 0.5% MC (400 cp)). During the experiment, mouse body weight and tumor size were measured twice weekly. Tumor size was calculated using the formula: Tumor volume (mm^3)=0.5×(Tumor long diameter × Tumor short diameter^2). Relative tumor inhibition rate (TGI) (%): TGI%=[1-(Average tumor volume at the end of treatment in a given treatment group - Average tumor volume at the start of treatment in the treatment group) / (Average tumor volume at the end of treatment in the solvent control group - Average tumor volume at the start of treatment in the solvent control group)] × 100%.

[2] = tested on: KRAS G12V mutant NCI-H727 cells; assay: Proliferation inhibition of NCI-H727 cells, 3D CellTiter-Glo assay (Method B); assay type: cell-based, human; settings: Homo sapiens, NCI-H727, 120 h, Method B; 3D culture with 0.65% methylcellulose, 5 days, CTG; read-out: NCI-H727 IC50/nM
Outline: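 Cells grown in 3D medium (RPMI-1640, 10% FBS, 0.65% methylcellulose) overnight, then treated 5 days at 37 °C, 5% CO2 with 9 threefold dilutions from 10 µM top working concentration, duplicate wells. CellTiter-Glo luminescence read; IC50 (nM) fitted by dose-response-inhibition equation.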

[3] = tested on: KRAS G12D mutant AGS cells; assay: Proliferation inhibition of AGS cells, CellTiter-Glo assay; assay type: cell-based, human; settings: Homo sapiens, AGS, 72 h, 3 days, CTG; read-out: AGS IC50/nM
Outline: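 AGS cells at 1500 cells/well in F12K + 10% FBS were exposed for 3 days at 37°C to nine 3-fold dilutions from 10 µM top concentration, in duplicate. Viability read by CellTiter-Glo luminescence; IC50 (nM) from dose-response-inhibition fitting.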

[4] = tested on: KRAS G12S mutant A549 cells; assay: Proliferation inhibition of A549 cells, 3D CellTiter-Glo assay; assay type: cell-based; settings: Homo sapiens, A549, 120 h, read-out: A549 IC50/nM
Method: A549 cells (Nanjing Kebai Biotechnology Co., Ltd., catalog number CBP60084, adherent, culture medium (F12K Nutrient Mixture+10%FBS (GIBCO, Cat#10091-148) at 37°C, 5%CO2, and 95% humidity.
3D Cell Viability Assay: Cells in the logarithmic growth phase were harvested and counted using a platelet counter. Cell viability was assessed using the trypan blue exclusion method to ensure a viability of over 90%. The 3D cell culture medium was prepared by adding 1% MC (methylcellulose, Sigma, Cat#M0512) F-12K medium and 10% FBS. The cell concentration was adjusted to approximately 7407 cells/mL using the 3D medium, and the methylcellulose (MC) content was set to 0.65%. Then, 135 µL of cell suspension was added to each 96-well clear, flat-bottomed, black-walled plate (Greiner, Cat#655096). The cells in the 96-well plates were cultured overnight at 37°C with 5% CO2.
Drug preparation for IC50 assay: A 10-fold drug solution was prepared using culture medium. […] of the drug solution was added to each well of a 96-well plate seeded with cells to achieve a working concentration of up to 10 µM, with a 3× dilution, and 9 concentrations. 2 replicate wells for each drug concentration were set. The cells in the drug-treated 96-well plates were cultured at 37°C and 5% CO^2 for additional5 days, then CTG assay (CellTiter-Glo® Luminescent Cell Viability Assay (Promega, Cat#G7573)) were performed.
The cell plate was equilibrated to room temperature for 30 minutes and the CTG reagent was thawed. 75 µL of CTG solution was added to each well for detection, and the plate was shaken on an orbital shaker for 5 minutes to lyse the cells. The cell plate was placed at room temperature for 25 minutes to stabilize the cryo-luminescence signal and the cryo-luminescence value was read (EnVision® multi-plate reader, PerkinElmer#2105).
Data was analyzed using GraphPad Prism software. The dose-response-inhibition equation was used to fit the data to obtain the dose-response curve, and the IC50 value (nM) was calculated accordingly. [formula]

[5] = in vivo; settings: mouse, po, 20 mg/kg
Method: (§1) Male CD-1 mice, aged 6-8 weeks, were purchased from Zhejiang Vital River Laboratory Animal Co., Ltd.
(§2) For the PO administration group, compounds were formulated in 0.5% Tween 80 and 99.5% (0.5%MC (400cp)) vehicle or 0.5%MC (400cp) vehicle to a final concentration of 1 mg/mL or 2 mg/mL for each compound. The drug formulation was administered to CD-1 mice via gavage at a dose of 10 mL/kg. Blood samples were collected from the submandibular vein or other suitable means at 15 min, 30 min, 1 h, 2 h, 4 h, 6 h, 8 h, and 24 h after administration. The blood samples were centrifuged at low temperature for 5 minutes, and the plasma was collected and stored at -80°C for analysis.
(§3) 10 µL of plasma sample was taken, 200 µL of methanol containing an internal standard as a precipitant was added to precipitate plasma proteins, the compounds to be tested in the plasma was extracted, centrifuged at low temperature, and 10 µL of the supernatant was injected. The drug concentration in blood plasma was analyzed by LC-MS/MS. The pharmacokinetic parameters were calculated using Winnonlin based on the blood drug concentration data at different time points.

[6] = tested on: human pancreatic cancer cells HPAC; settings: po, 20 mg/kg, 408 h
Method: The following materials were used in this experiment: NOD/SCID mice, 6-8 weeks old, female, Jiangsu Jicui Yaokang Biotechnology Co., Ltd.; HPAC cells (carrying KRas G12D mutant protein, ATCC); Captisol (Wuhan Fengyao Tonghui Chemical Products Co., Ltd., Cas#182410-00-0); sodium acetate (aladdin) MC (sigma, 9004-67-5).
The experiment was conducted as follows: 6- to 8- week-old female NOD/SCID mice were subcutaneously inoculated with 1×10^7 HPAC cells in their right posterior back, with an inoculation volume of 0.1 mL. When the tumor reached an average volume of 150 mm^3, mice were randomly assigned to groups based on tumor size and body weight for drug administration. The day of drug administration was considered day 0. The test compound was administered by gavage to four mice in each group, while the control group received an equal volume of the solvent via gavage.
During the experiment, tumor volume and body weight were measured twice a week. Tumor volume was calculated using the formula: Tumor volume (mm^3)=0.5×(tumor long diameter×tumor short diameter^2). The mean tumor inhibition rate (TGI%) was calculated as follows: [(average tumor volume in the control group-average initial tumor volume in the control group)-(average tumor volume in the treatment group - average initial tumor volume in the treatment group)] / (average tumor volume in the control group - average initial tumor volume in the control group).

[7] = Pharmacokinetics in mice; settings: mouse, plasma, po, 10 mg/kg
Method: as §1, §2, §3

Row | Compound | Tumor volume (mm^3) (day 16) [1] | TGI% [1] [%] | IC50 [2] [nM] | IC50 [3] [nM] | IC50 [4] [nM] | AUC(0-t) at 8 h [5] [ng·h/mL] | TGI% [6] [%] | Tumor volume (mm^3) (day 17) [6] | AUC(0-t) at 8 h [7] [ng·h/mL]
1 | [2H]C([2H])([2H])N1CCC(=CF)C(C)(COc2nc(N3Cc4cc(C(=O)N(C)C)nn4CCC3C)c3cc(Cl)c(-c4c(F)ccc5sc(N)c(C#N)c45)c(F)c3n2)C1 (stereo not shown) [Example 255A] | 259 | 74 | < 1.5 | < 1.5 | – | – | – | – | –
2 | CCc1cc2c(N3Cc4cc(C(=O)N(C)C)nn4CC[C@@H]3C)nc(OC[C@]3(C)CN(CC)CC/C3=C\F)nc2c(F)c1-c1c(F)ccc2sc(N)c(C#N)c12 (single isomer, unassigned) [Example 175A] | 266 | 73 | < 1.5 | < 1.5 | 23.3 | – | – | – | –
3 | CCN1CC/C(=C\F)[C@](C)(COc2nc(N3Cc4c(COC)c(C(=O)N(C)C)nn4CC[C@@H]3C)c3cc(C(F)(F)F)c(-c4c(F)ccc5sc(N)c(C#N)c45)c(F)c3n2)C1 (single isomer, unassigned) [Example 232A] | – | – | < 1.5 | < 1.5 | – | 1520 | – | – | –
4 | [2H]C([2H])([2H])N1CC/C(=C\F)[C@](C)(COc2nc(N3Cc4cc(C(=O)N(C)C)nn4CC[C@@H]3C)c3cc(C(F)(F)F)c(-c4c(F)ccc5sc(N)c(C#N)c45)c(F)c3n2)C1 (single isomer, unassigned) [Example 247A] | 162 | 97 | < 1.5 | < 1.5 | – | – | 98 | 161 | –
5 | [2H]C([2H])([2H])N1CCC(=CF)C(C)(COc2nc(N3CCCn4nc(C(=O)N(C)C)c(Cl)c4C3)c3cc(CC)c(-c4c(F)ccc5sc(N)c(C#N)c45)c(F)c3n2)C1 (atropisomer, axis not shown) [Example 265A] | 330 | 57 | 2.8 | < 1.5 | – | – | 80 | 237 | –
6 | [2H]C([2H])([2H])N1CC/C(=C\F)[C@](C)(COc2nc(N3CCCn4nc(C(=O)N(C)C)c(Cl)c4C3)c3cc(C4CC4)c(-c4c(F)ccc5sc(N)c(C#N)c45)c(F)c3n2)C1 [Example 266A] | 307 | 63 | 3 | < 1.5 | – | – | – | – | –
7 | CCN1CC/C(=C\F)[C@](C)(COc2nc(N3Cc4cc(C(=O)N(C)C)nn4CC[C@@H]3C)c3cc(Cl)c(-c4c(F)ccc5sc(N)c(C#N)c45)c(C)c3n2)C1 (single isomer, unassigned) [Example 178A] | – | – | < 1.5 | 1.9 | – | – | – | – | 1190
